Activity calls are given as the source filed them. Cut-off read from the data, not from the text of the source: actives have a measured IC50 and inactives only a lower limit.
Each molecule was assayed against Envelope glycoprotein gp160 (Human immunodeficiency virus 1, UniProt Q6QLK5) (assay: inhibitors of HIV fusion peptide binding, primary screen, biochemical, uHTS, fluorescence dequenching (AID 1986)).
Chain of Envelope glycoprotein gp160 (Q6QLK5 whole entry, the tested form may be a part): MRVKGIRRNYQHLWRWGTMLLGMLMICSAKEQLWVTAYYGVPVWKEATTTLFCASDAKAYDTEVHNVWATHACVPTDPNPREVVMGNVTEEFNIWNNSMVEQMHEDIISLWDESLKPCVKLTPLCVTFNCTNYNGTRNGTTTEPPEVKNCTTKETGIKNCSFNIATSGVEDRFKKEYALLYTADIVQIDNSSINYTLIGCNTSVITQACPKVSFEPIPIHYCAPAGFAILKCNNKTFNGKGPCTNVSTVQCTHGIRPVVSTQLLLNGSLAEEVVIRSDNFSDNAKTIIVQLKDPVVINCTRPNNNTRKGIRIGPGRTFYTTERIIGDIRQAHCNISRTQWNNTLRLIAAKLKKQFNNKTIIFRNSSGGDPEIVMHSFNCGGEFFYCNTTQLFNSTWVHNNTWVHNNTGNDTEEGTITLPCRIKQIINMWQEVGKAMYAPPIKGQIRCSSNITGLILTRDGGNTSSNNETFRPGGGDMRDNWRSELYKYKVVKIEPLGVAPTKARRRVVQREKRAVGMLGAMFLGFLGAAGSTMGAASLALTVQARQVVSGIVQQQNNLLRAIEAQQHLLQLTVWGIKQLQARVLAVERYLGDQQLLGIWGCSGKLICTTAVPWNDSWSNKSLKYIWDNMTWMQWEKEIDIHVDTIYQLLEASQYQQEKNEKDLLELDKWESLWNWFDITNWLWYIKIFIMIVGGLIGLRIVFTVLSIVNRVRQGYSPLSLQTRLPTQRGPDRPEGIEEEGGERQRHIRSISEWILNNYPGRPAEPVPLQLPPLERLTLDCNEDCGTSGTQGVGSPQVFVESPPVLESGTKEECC
For `CS(=O)(=O)C1=NSC2=NC(=O)/C(=C\c3cccn3-c3ccc(Cl)cc3)C(=N)N21`, the IC50 was 18.5 µM (active).
With `CSc1ccc(C(c2c(C(=O)O)[nH]c3ccccc23)c2c(C(=O)O)[nH]c3ccccc23)cc1` the IC50 was 8.99 µM (active).
For `CCOc1ccc(CCNC(=O)c2ccc3c(=O)[nH]c4c(C(=O)NC(C)C)sc(=S)n4c3c2)cc1`, the IC50 was 62.5 µM (active).
For `CC(C)CS(=O)(=O)C1=NSC2=NC(=O)/C(=C\c3ccc(OC(=O)c4ccco4)cc3)C(=N)N21`, the IC50 was 15.6 µM (active).
For `COc1cc([N+](=O)[O-])cc(/C=N/NC(=O)c2cc(-c3ccccc3)nc3ccccc23)c1O`, the IC50 was 30.3 µM (active).

Reference: ChEMBL document CHEMBL1201862, “PubChem BioAssay data set” (2004)
